Laboratory results: patent US20210032205A1, “HETEROARYL SULFONAMIDE COMPOUND AND FORMULATION FOR CONTROLLING HARMFUL ORGANISMS” (Nippon Soda Co., Ltd., priority 2018, published 2021)

Columns and labels:
Mythimna separata = assay: Efficacy test against Mythimna separata (artificial feed); format: in vivo; details: second-instar larvae; 1 μl of 5% emulsion (I) in 0.8 g artificial feed; 5 days at 25° C.
Method: (§1) Five parts of the compound of the present invention, 93.6 parts of dimethylformamide and 1.4 parts of a polyoxyethylene alkyl aryl ether were mixed together and dissolved to obtain an emulsion (I) containing 5% of the active ingredient.
An emulsion (II) containing 0% of an active ingredient was prepared in the same method as that described above, with the exception that 5 parts of the compound of the present invention was not mixed and dissolved.
(§2) The mortality rate was calculated using the following equation.
(§3) Mortality rate (%)=(number of dead insects/number of test insects)×100
First, 0.8 g of an artificial feed (Insecta LFS, manufactured by Nosan Corporation) and 1 μl of the emulsion (I) were mixed thoroughly, and 0.2 g of the resulting mixture was placed in each of the treatment areas of a plastic test container (volume: 1.4 ml) to complete preparation of a test feed. Two second-instar larvae of Mythimna separata were inoculated into each treatment area, and the plastic test container was sealed with a plastic lid. The sealed container was placed for 5 days in a thermostatic chamber at 25° C. Subsequently, the mortality rate and the amount of feed consumed were checked. In addition, a test for a control area was carried out under the same conditions as those described above, with the exception of replacing the emulsion (I) with the emulsion (II). The test was repeated in both cases.

Spodoptera litura = assay: Efficacy test against Spodoptera litura (cabbage leaf dip); format: in vivo; details: foliar, 144 h, cabbage leaves soaked 30 seconds, second-instar larvae, 6 days after release, 25° C., read-out: mortality rate against Spodoptera litura
Method: as §1, §2, §3
(§4) The emulsion (I) was diluted with water to achieve a concentration of the compound of the present invention of 125 ppm. Cabbage leaves were soaked in the diluted liquid for 30 seconds. These cabbage leaves were then placed in a Petri dish, and five second-instar larvae of Spodoptera litura were released into the dish. The Petri dish closed with a lid was placed in a thermostatic chamber at a temperature of 25° C. and a humidity of 60%. Mortality was investigated 6 days after larvae release, and the mortality rate was calculated. The test was repeated.

Plutella xylostella = assay: Efficacy test against Plutella xylostella (cabbage leaf dip); format: in vivo; details: foliar, 72 h, cabbage leaves soaked 30 seconds, second-instar larvae, 3 days after release, 25° C., read-out: mortality rate (efficacy test against Plutella xylostella; sentence prints Spodoptera litura)
Method: as §1, §2, §3
as §4, with “of Plutella xylostella” for “of Spodoptera litura”, “investigated 3” for “investigated 6”

Meloidogyne incognita = assay: Efficacy test against Meloidogyne incognita (in vitro test); format: in vivo; details: 48 h, second-instar larvae (L2), 2 days at 15° C., 96-well microplate, read-out: nematode mortality rate against Meloidogyne incognita
Method: (§5) A suspension containing about 50 second-instar larvae (L2) of Meloidogyne incognita per 0.2 mL was prepared. The compound of the present invention was dissolved in DMSO, so that a DMSO solution containing the compound at a concentration of 10,000 ppm was prepared. 200 μL of the suspension mentioned above per well and 1.0 μL of the DMSO solution of the compound mentioned above per well were dispensed into each well of a 96-well microplate. The final concentration of the compound of the present invention per well was 50 ppm. The 96-well microplate was placed for 2 days at 15° C. Subsequently, mortality was investigated, and the nematode mortality rate was calculated. […] The test was repeated.

Caenorhabditis elegans = assay: Efficacy test against Caenorhabditis elegans (in vitro test); format: in vivo; details: 48 h, mixed instars, 2 days at 25° C., 96-well microplate, read-out: nematode mortality rate against Caenorhabditis elegans
Method: as §5, with “50 mixed instars” for “50 second-instar larvae (L2)”, “of Caenorhabditis elegans” for “of Meloidogyne incognita”, “[…]” for “10,000 ppm”, “at 25°” for “at 15°”

Heterodera glycines = assay: Efficacy test against Heterodera glycines (in vitro test); format: in vivo; details: 72 h, second-instar larvae (L2), 3 days at 25° C., 96-well microplate, read-out: nematode mortality rate against Heterodera glycines
Method: as §5, with “of Heterodera glycines” for “of Meloidogyne incognita”, “[…]” for “10,000 ppm”, “and 0.2” for “and 1.0”, “was 10” for “was 50”, “for 3” for “for 2”, “at 25°” for “at 15°”

Row | SMILES | mortality rate against Mythimna separata (Mythimna separata) [%] | mortality at 125 ppm (Spodoptera litura) [%] | mortality at 125 ppm (Plutella xylostella) [%] | mortality at 50 ppm (Meloidogyne incognita) [%] | mortality at 50 ppm (Caenorhabditis elegans) [%] | mortality at 10 ppm (Heterodera glycines) [%] | melting point [°C]
1 | O=C(Nc1ccc(C(F)(F)F)cc1)c1ncc(C(F)(F)F)cc1NS(=O)(=O)C(F)(F)F [Compound A-2] | 100 | ≥ 80 | ≥ 80 | ≥ 80 | – | – | –
2 | O=C(Nc1cc(F)c(F)cc1-n1cccn1)c1sc(Cl)cc1NS(=O)(=O)C(F)(F)F [Compound A-6] | 100 | – | – | ≥ 80 | – | – | –
3 | O=C(Nc1ccc(C(F)(F)F)cc1)c1cnc(Cl)cc1NS(=O)(=O)C(F)(F)F [Compound A-1, 6-chloro-N-[4-(trifluoromethyl)phenyl]-4-(trifluoromethylsulfonylamino)pyridine-3-carboxamide] | 100 | ≥ 80 | ≥ 80 | ≥ 80 | ≥ 80 | ≥ 80 | –
4 | O=C(Nc1ccc(C(F)(F)F)cc1)c1ccc(Cl)nc1NS(=O)(=O)C(F)(F)F [Compound A-4] | 100 | ≥ 80 | ≥ 80 | ≥ 80 | – | – | –
5 | COC(=O)c1cc(F)c(F)cc1NC(=O)c1ncc(C(F)(F)F)cc1NS(=O)(=O)C(F)(F)F [Compound A-3] | – | – | – | – | – | – | 270
6 | O=C(Nc1ccc(C(F)(F)F)cc1)c1cc(Cl)ncc1NS(=O)(=O)C(F)(F)F [Compound A-5] | 100 | – | – | ≥ 80 | ≥ 80 | ≥ 80 | –
7 | O=C(Nc1ccc(F)c(F)c1)c1cnc(Cl)cc1NS(=O)(=O)C(F)(F)F [Compound A-7] | 100 | – | – | ≥ 80 | ≥ 80 | ≥ 80 | –
